# Results: article PMC8591608, “DNDI-6148: A Novel Benzoxaborole Preclinical Candidate for the Treatment of Visceral Leishmaniasis” (Journal of Medicinal Chemistry, 2021)
# Values joined by “and” are separate entries in the source; they are usually repeats but may differ in a detail not shown here. Equal values may be shown once. Read-outs that look alike come from different tables or passages of the source.
# Columns and labels:
# [1] = tested on: CPSF3-overexpressing L. donovani promastigotes; experiment: Drug sensitivity, CPSF3-overexpressing L. donovani promastigotes; format: cell-based; details: Leishmania donovani
# Method: The clonal L. donovani cell line LdBOB (derived from MHOM/SD/62/1S-CL2D) was grown as promastigotes at 28 °C, as described previously. Bloodstream form T. brucei MiTat 1.2 clone 221a and its derived subline, 2T1, were cultured at 37 °C in the presence of 5% CO2 in HMI9-T medium, as described previously. T. brucei cell lines overexpressing CPSF3 and overexpressing a mutated version of CPSF3 (Asn232His) were generated as part of a previous study and cultured as described.[19]
# L. donovaniCPSF3 gene (LdBPK_343210.1) was custom synthesized by GeneArt and ligated into the pIR1SAT vector via BglII restriction sites. Using the Q5 mutagenesis kit (NEB) and the pIR1SAT-LdCPSF3^WT construct as a template, mutations encoding A655C and Asn219His change to CPSF3^WT were introduced. Mutations were introduced using the specific primers 5′-GAGTACACGGCATCCGC-3′ and 5′-[…]-3′ and as per manufacturers’ instructions. Wild-type and mutated pIR1SAT constructs were digested with SwaI and transfected into L. donovani promastigotes, as previously described. Resistant clones were selected with nourseothricin (100 μg/mL), and two clones per transfection were selected for further study.
# (§1) Drug sensitivity assays with wild-type and transgenic T. brucei and L. donovani cell lines were carried out as previously described.[31],[32]
# [2] = Liver microsome stability, mouse; format: in vitro ADME; details: Balb/c, mouse liver microsomes, pH 7.4
# Method: Tests were performed by WuXi AppTec, China. Test compounds (at 1 μM) or positive controls (testosterone, propafenone, and diclofenac) were incubated at 37 °C with liver microsomes from Balb/c mouse, golden (Syrian) hamster, Sprague-Dawley rat, Beagle dog, or human in the presence of a NADPH regenerating system and phosphate buffer (100 mM, pH 7.4) at 0.4 or 0.8 mg/mL microsomal protein. The samples were removed at time intervals from 0 to 60, 90, or 120 min and immediately mixed with cold methanol supplemented or not with acid (3% formic acid) and centrifuged prior to analysis by LC-MS/MS using tolbutamide or propranolol as internal standards.
# CYP2C9 = CYP2C9 (Homo sapiens, UniProt P11712); experiment: CYP inhibition, CYP2C9; format: in vitro ADME; details: human liver microsomes
# Sequence of CYP2C9 (P11712 whole entry): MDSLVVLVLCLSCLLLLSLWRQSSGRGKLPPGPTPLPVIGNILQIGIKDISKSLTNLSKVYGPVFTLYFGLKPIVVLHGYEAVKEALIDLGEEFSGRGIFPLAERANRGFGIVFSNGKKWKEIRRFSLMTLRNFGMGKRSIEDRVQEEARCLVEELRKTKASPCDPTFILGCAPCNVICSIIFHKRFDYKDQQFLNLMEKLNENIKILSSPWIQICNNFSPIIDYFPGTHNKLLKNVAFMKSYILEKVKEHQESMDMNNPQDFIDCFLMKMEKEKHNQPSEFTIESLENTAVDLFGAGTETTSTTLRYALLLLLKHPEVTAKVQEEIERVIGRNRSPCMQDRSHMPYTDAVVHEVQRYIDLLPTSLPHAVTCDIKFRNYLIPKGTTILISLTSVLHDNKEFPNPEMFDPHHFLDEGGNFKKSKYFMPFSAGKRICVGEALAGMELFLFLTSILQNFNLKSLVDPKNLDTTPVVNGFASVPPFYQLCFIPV
# Method: (§2) The study was conducted by WuXi AppTec, Co., China, using the time-dependent (TDI) method. […] Following incubation with substrates (phenacetin for 1A2, diclofenac for 2C9, S-(+) mephenytoin for 2C19, dextromethorphan for 2D6, and midazolam or testosterone for 3A4), reactions were stopped by adding ice-cold acetonitrile, the samples were analyzed for the formation of metabolites by LC-MS/MS, and the percentage of inhibition was determined.
# [3] = Plasma-protein binding, human; format: in vitro ADME; details: pH 7.4
# Method: Tests were conducted by WuXi AppTec, Co., China, using the equilibrium dialysis method and a 96-well plate format. The test compound (at 2 μM, in triplicate) in solution in plasma (Balb/c mouse, golden (Syrian) hamster, Sprague-Dawley rat, Beagle dog or human) was dialyzed against 100 mM phosphate-buffered saline (pH 7.4) on a rotating plate incubated for 6 h at 37 °C. Following the precipitation of protein with acetonitrile or acetonitrile/methanol containing both 1% phosphoric acid, the amount of compound present in each compartment was quantified by LC-MS/MS.
# [4] = tested on: L. donovani clones, CPSF3 Asn219His; experiment: Drug sensitivity, L. donovani CRISPR-Cas9 edited CPSF3 Asn219His; format: cell-based; details: listed as DNDI-6148
# Method: A cell line constitutively expressing Cas9 and T7 RNA polymerase was generated by transfecting 4 × 10^7 promastigotes with the pTB007 vector (10 μg), as previously described.[29] Expression of Cas9 in selected clones was confirmed by western blotting (Figure S1). In addition, the CRISPR-Cas9 system in these parasites was confirmed as functional following the successful tagging of the flagellar protein PF16 with mNeonGreen, as previously described.[29]
# To introduce specific mutations into CPSF3, 3 × 10^6 promastigotes expressing Cas9 and T7 RNA were resuspended in a 110 μL of Human T-Cell Nucleofector reagent and transfected with 18 μL of sgRNA and 4 μg of template using the Amaxa Nucleofector electroporator (program V-033). sgRNA was produced according to the previously established protocol from the Gluenz lab,[30] in which the scaffold primer G00 and a gene-specific forward primer (FwsgRNA) were used (Table S1). Twenty-four hours following transfection, DNDI-6148 was added to cultures at 6 μM. Drug-selected populations were cloned by limiting dilution, EC50s were determined, and genomic DNA was extracted. The CPSF3 gene from CRISPR-edited parasites was amplified by PCR, and the resulting products were sequenced.
# as §1
# CYP2D6 = CYP2D6 (Homo sapiens, UniProt P10635); experiment: CYP inhibition, CYP2D6; format: in vitro ADME; details: human liver microsomes
# Sequence of CYP2D6 (P10635 whole entry): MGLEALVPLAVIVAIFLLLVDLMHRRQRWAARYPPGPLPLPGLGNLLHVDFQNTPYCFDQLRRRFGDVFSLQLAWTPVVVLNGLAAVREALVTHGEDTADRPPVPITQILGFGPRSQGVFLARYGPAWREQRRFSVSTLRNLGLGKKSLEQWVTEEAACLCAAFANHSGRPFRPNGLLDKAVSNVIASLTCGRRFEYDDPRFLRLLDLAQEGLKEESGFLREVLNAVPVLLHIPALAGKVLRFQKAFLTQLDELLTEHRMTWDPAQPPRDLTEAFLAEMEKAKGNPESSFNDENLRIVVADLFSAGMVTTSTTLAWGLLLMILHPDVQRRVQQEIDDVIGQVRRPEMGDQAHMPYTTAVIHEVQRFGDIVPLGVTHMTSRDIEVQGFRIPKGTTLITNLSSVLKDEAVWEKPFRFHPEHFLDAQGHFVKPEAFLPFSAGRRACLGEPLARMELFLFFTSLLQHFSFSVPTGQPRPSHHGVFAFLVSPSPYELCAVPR
# Method: as §2
# [5] = In vivo pharmacokinetics in rat; parameters: species or system male Sprague-Dawley rats; details: for MRT inf: read-out: MRT0-inf; for MRT last: read-out: MRT0-last
# Method: DNDI-6148 was formulated in 2% ethanol, 1 mol equiv NaOH, dextrose (5% solution), and administrated to male Sprague-Dawley rats, either i.v. after filtration and pH adjustment (at 2 mg/kg), or p.o. as a homogenous suspension (at 10 mg/kg). The K2-EDTA anticoagulant was added to blood samples collected at predose, 0.083 (i.v. only), 0.25, 0.5, 1, 2 (p.o. only), 4, 8, and 24 h, and were processed to plasma and stabilized with phosphoric acid (1% final) before analysis by LC-MS/MS. PK parameters were calculated using WinNonlin software (version 6.21 and 6.3).
# [6] = male, Sprague-Dawley, plasma, iv, rat, i.v. 2 mg/kg
# [7] = male, Sprague-Dawley, rat, plasma, IV 2.32 mg/kg, mean of R1-R3
# [8] = male, Sprague-Dawley, rat, plasma, PO 10.4 mg/kg, mean of R4-R6
smiles,measurement,setting,value
"Cc1c(C(=O)Nc2ccc3c(c2)B(O)OC3)nnn1-c1ccccn1 [Compound 23, N-(1-Hydroxy-1,3-dihydrobenzo[c][1,2]oxaborol-6-yl)-5-methyl-1-(pyridin-2-yl)-1H-1,2,3-triazole-4-carboxamide]",EC50,[1],0.508 ± 0.013 µM
same,microsomal CLint at 1 μM,[2],< 11.9 µL/min/mg
same,IC50,CYP2C9,> 50 µM
same,"fraction unbound at 6 h, 2 µM",[3],0.08
same,Fold change (relative to WT),[4],3.0 fold and 3 fold
same,IC50,CYP2D6,> 50 µM
same,Plasma concentration,"[5]; IV 2.32 mg/kg, plasma, 5 min, mean of R1-R3",4727
same,Plasma concentration,"[5]; IV 2.32 mg/kg, plasma, 0.25 h, mean of R1-R3",4093
same,Plasma concentration,"[5]; IV 2.32 mg/kg, plasma, 0.50 h, mean of R1-R3",3627
same,Plasma concentration,"[5]; IV 2.32 mg/kg, plasma, 1.00 h, mean of R1-R3",2767
same,Plasma concentration,"[5]; IV 2.32 mg/kg, plasma, 4.00 h, mean of R1-R3",537
same,Plasma concentration,"[5]; IV 2.32 mg/kg, plasma, 8.00 h, mean of R1-R3",84.9
same,Plasma concentration,"[5]; IV 2.32 mg/kg, plasma, 24.0 h, mean of R1-R3",5.67
same,AUC0-inf/AUC0-last,"[5]; IV 2.32 mg/kg, mean of R1-R3",100%
same,Tlast,"[5]; IV 2.32 mg/kg, mean of R1-R3",24.0 h
same,Plasma concentration,"[5]; PO 10.4 mg/kg, plasma, 0.25 h, mean of R4-R6",4287
same,Plasma concentration,"[5]; PO 10.4 mg/kg, plasma, 0.50 h, mean of R4-R6",3993
same,Plasma concentration,"[5]; PO 10.4 mg/kg, plasma, 1.00 h, mean of R4-R6",5153
same,Plasma concentration,"[5]; PO 10.4 mg/kg, plasma, 2.00 h, mean of R4-R6",6900
same,Plasma concentration,"[5]; PO 10.4 mg/kg, plasma, 4.00 h, mean of R4-R6",5773
same,Plasma concentration,"[5]; PO 10.4 mg/kg, plasma, 8.00 h, mean of R4-R6",1249
same,Plasma concentration,"[5]; PO 10.4 mg/kg, plasma, 24.0 h, mean of R4-R6",13.8
same,AUC0-inf/AUC0-last,"[5]; PO 10.4 mg/kg, mean of R4-R6",100%
same,Tlast,"[5]; PO 10.4 mg/kg, mean of R4-R6",24.0 h
same,Vd at 24 h,[5]; [6],0.6 L/kg
same,half-life at 24 h,[5]; [6],2.8 h
same,clearance,"[5]; male, Sprague-Dawley, plasma, iv, rat, i.v. 2 mg/kg, read-out: clearance",4.5 mL/min/kg
same,bioavailability,"[5]; male, Sprague-Dawley, plasma, po, rat, p.o. 10 mg/kg, read-out: F",94%
same,AUC(0-inf),[5]; [7],9160 ng·h/mL
same,AUC(0-t),[5]; [7],9140 ng·h/mL
same,C0,[5]; [7],5100 ng/mL
same,half-life,[5]; [7],2.75 h
same,clearance,"[5]; male, Sprague-Dawley, rat, plasma, IV 2.32 mg/kg, mean of R1-R3, read-out: Cl",4.5 mL/min/kg
same,MRT inf,[5]; [7],2.29 h
same,MRT last,[5]; [7],2.21 h
same,Vd,"[5]; male, Sprague-Dawley, rat, plasma, IV 2.32 mg/kg, mean of R1-R3, read-out: Vdss",0.603 L/kg
same,bioavailability,"[5]; male, Sprague-Dawley, rat, plasma, PO 10.4 mg/kg vs IV 2.32 mg/kg, mean, read-out: Bioavailability",94%
same,AUC(0-inf),[5]; [8],38600 ng·h/mL
same,AUC(0-t),[5]; [8],38500 ng·h/mL
same,Cmax,[5]; [8],7330 ng/mL
same,Tmax,[5]; [8],2.67 h
same,half-life,[5]; [8],2.34 h
same,MRT inf,[5]; [8],4.18 h
same,MRT last,[5]; [8],4.15 h
